From patent US10131652B2, “Pyrimidinyloxy benzene derivatives as herbicides” (E. I. DU PONT DE NEMOURS AND COMPANY, priority 2014, dated 2018)

Key:
Type in all cases: in vivo
[1] = tested on: Italian ryegrass (Lolium multiflorum); assay: Test B pre-/postemergence plant response
Excerpt: (§1) Seeds of plant species selected from bamyardgrass (Echinochloa crus-galli), kochia (Kochia scoparia), ragweed (common ragweed, Ambrosia elatior), Italian ryegrass (Lolium multiflorum), large (Lg) crabgrass (Digitaria sanguinalis), giant foxtail (Setaria faberii), momingglory (Ipomoea spp.), pigweed (Amaranthus retroflexus), velvetleaf (Abutilon theophrasti), wheat (Triticum aestivum), and corn (Zea mays) were planted into a blend of loam soil and sand and treated preemergence with a directed soil spray using test chemicals formulated in a non-phytotoxic solvent mixture which included a surfactant. At the same time, plants selected from these crop and weed species and also blackgrass (Alopecurus myosuroides), and galium (catchweed bedstraw, Galium aparine) were planted in pots containing the same blend of loam soil and sand and treated with postemergence applications of test chemicals formulated in the same manner. Plants ranged in height from 2 to 10 cm and were in the one- to two-leaf stage for the postemergence treatment. Treated plants and untreated controls were maintained in a greenhouse for approximately 10 days, after which time all treated plants were compared to untreated controls and visually evaluated for injury. Plant response ratings, summarized in Table B, are based on a 0 to 100 scale where 0 is no effect and 100 is complete control. A dash (-) response means no test result.

[2] = tested on: barnyardgrass (Echinochloa crus-galli); assay: Test B pre-/postemergence plant response
Excerpt: as §1

corn (Zea mays) = assay: Test B pre-/postemergence plant response
Excerpt: as §1

[3] = tested on: giant foxtail (Setaria faberii); assay: Test B pre-/postemergence plant response
Excerpt: as §1

kochia (Kochia scoparia) = assay: Test B pre-/postemergence plant response
Excerpt: as §1

[4] = tested on: pigweed (Amaranthus retroflexus); assay: Test B pre-/postemergence plant response
Excerpt: as §1

[5] = tested on: ragweed (common ragweed, Ambrosia elatior); assay: Test B pre-/postemergence plant response
Excerpt: as §1

[6] = tested on: wheat (Triticum aestivum); assay: Test B pre-/postemergence plant response
Excerpt: as §1

[7] = tested on: blackgrass (Alopecurus myosuroides); assay: Test B postemergence plant response
Outline: (§2)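 Seedlings in a loam soil and sand mix received a postemergence application of the formulated chemicals at the one- to two-leaf stage (2–10 cm tall). They were kept in a greenhouse for roughly 10 days, then scored for injury relative to untreated plants, 0 meaning no effect and 100 complete control.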

[8] = tested on: galium (catchweed bedstraw, Galium aparine); assay: Test B postemergence plant response
Outline: as §2

[9] = tested on: barnyardgrass (Echinochloa crus-galli); assay: Test C flooded paddy test plant response; conditions: Flood, 250 g ai/ha; scale of 0 to 100 where 0 is no effect and 100 is complete control; 13 to 15 days
Outline: (§3)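 Water-applied treatment: compounds go directly into floodwater standing 3 cm over the soil of pots holding 2-leaf-stage plants. Depth is kept constant; plants stay in a greenhouse 13 to 15 days before visual comparison with controls on a 0–100 scale.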

[10] = tested on: ducksalad (Heteranthera limosa); assay: Test C flooded paddy test plant response; conditions: Flood, 250 g ai/ha; scale of 0 to 100 where 0 is no effect and 100 is complete control; 13 to 15 days
Outline: as §3

rice (Oryza sativa) = assay: Test C flooded paddy test plant response; conditions: Flood, 250 g ai/ha; scale of 0 to 100 where 0 is no effect and 100 is complete control; 13 to 15 days
Outline: as §3

[11] = tested on: small-flower umbrella sedge (Cyperus difformis); assay: Test C flooded paddy test plant response; conditions: Flood, 250 g ai/ha; scale of 0 to 100 where 0 is no effect and 100 is complete control; 13 to 15 days
Outline: as §3

[12] = 31 g ai/ha, Preemergence, 0 to 100 scale where 0 is no effect and 100 is complete control
[13] = 125 g ai/ha, postemergence, 0 to 100 scale, 0 no effect, 100 complete control
[14] = Postemergence, 31 g ai/ha, 0 to 100 scale (0 no effect, 100 complete control)
[15] = Preemergence, 125 g ai/ha, 0 to 100 scale (0 no effect, 100 complete control)
[16] = 31 g ai/ha, Postemergence, 0 to 100 scale, 0 no effect, 100 complete control
[17] = Postemergence, 1000 g ai/ha, 0 to 100 scale (0 no effect, 100 complete control)
[18] = Preemergence, 1000 g ai/ha, 0 to 100 scale (0 no effect, 100 complete control)

| SMILES | Plant response rating, Ryegrass, Italian [1, 12] | Plant response rating, Ryegrass, Italian [1, 13] | Ryegrass, Italian plant response rating [1, 15] | Plant response rating, Barnyardgrass [2, 12] | Plant response rating, Barnyardgrass [2, 13] | Barnyardgrass plant response rating [2, 15] | Plant response rating, Corn (corn (Zea mays); [13]) | Plant response rating, Foxtail, Giant [3, 12] | Plant response rating, Foxtail, Giant [3, 13] | Foxtail, Giant plant response rating [3, 15] | Plant response rating, Kochia (kochia (Kochia scoparia); [12]) | Plant response rating, Kochia (kochia (Kochia scoparia); [13]) | Kochia plant response rating (kochia (Kochia scoparia); [15]) | Plant response rating, Pigweed [4, 12] | Plant response rating, Pigweed [4, 13] | Pigweed plant response rating [4, 15] | Barnyardgrass plant response rating [9] | Ducksalad plant response rating [10] | Rice plant response rating (rice (Oryza sativa)) | Sedge, Umbrella plant response rating [11] | other results |
| --- | --- | --- | --- | --- | --- | --- | --- | --- | --- | --- | --- | --- | --- | --- | --- | --- | --- | --- | --- | --- | --- |
| Fc1cnc(Oc2cccc(F)c2-c2cnccn2)nc1 [Compound 166] | 0 | 0 | 0 | 0 | 0 | 0 | 10 | 0 | 0 | 0 | 0 | 0 | 0 | 40 | 30 | 60 | 0 | 0 | 0 | 0 | Plant response rating, Ryegrass, Italian [1, 14]: 0; Plant response rating, Barnyardgrass [2, 14]: 0; Plant response rating, Corn (corn (Zea mays); [14]): 0; Plant response rating, Foxtail, Giant [3, 14]: 0; Plant response rating, Kochia (kochia (Kochia scoparia); [14]): 0; Plant response rating, Pigweed [4, 14]: 20; Plant response rating, Ragweed [5, 12]: 0; Plant response rating, Ragweed [5, 13]: 30; Plant response rating, Ragweed [5, 14]: 10; Ragweed plant response rating [5, 15]: 20; Plant response rating, Wheat [6, 13]: 0; Plant response rating, Wheat [6, 14]: 0; Plant response rating, Blackgrass [7, 13]: 0; Plant response rating, Blackgrass [7, 14]: 0; Plant response rating, Galium [8, 13]: 30; Plant response rating, Galium [8, 14]: 20 |
| Fc1ccc(-c2cc(C(F)(F)F)no2)c(Oc2ncc(Cl)cn2)c1 [Compound 124] | 0 | 0 | 10 | 0 | 20 | 30 | 10 | 20 | 20 | 100 | 10 | 80 | 60 | 40 | 90 | 100 | 0 | 80 | 0 | 85 | Plant response rating, Barnyardgrass [2, 16]: 0; Plant response rating, Corn (corn (Zea mays); [16]): 0; Plant response rating, Foxtail, Giant [3, 16]: 0; Plant response rating, Ragweed [5, 12]: 0; Plant response rating, Ragweed [5, 13]: 20; Ragweed plant response rating [5, 15]: 10; Plant response rating, Wheat [6, 13]: 0; Plant response rating, Blackgrass [7, 16]: 0; Plant response rating, Blackgrass [7, 13]: 30; Plant response rating, Galium [8, 13]: 100 |
| Fc1ccnc(-c2ccccc2Oc2ncc(Cl)cn2)c1 [Compound 175] | 0 | 0 | 0 | 0 | 10 | 0 | 0 | 0 | 0 | 0 | 0 | 30 | 0 | 0 | 60 | 70 | 0 | 0 | 0 | 0 | Plant response rating, Ryegrass, Italian [1, 14]: 0; Plant response rating, Barnyardgrass [2, 14]: 0; Plant response rating, Corn (corn (Zea mays); [14]): 0; Plant response rating, Foxtail, Giant [3, 14]: 0; Plant response rating, Kochia (kochia (Kochia scoparia); [14]): 0; Plant response rating, Pigweed [4, 14]: 50; Plant response rating, Ragweed [5, 12]: 0; Plant response rating, Ragweed [5, 13]: 30; Plant response rating, Ragweed [5, 14]: 20; Ragweed plant response rating [5, 15]: 0; Plant response rating, Wheat [6, 13]: 0; Plant response rating, Wheat [6, 14]: 0; Plant response rating, Blackgrass [7, 13]: 0; Plant response rating, Blackgrass [7, 14]: 0; Plant response rating, Galium [8, 13]: 40; Plant response rating, Galium [8, 14]: 20 |
| Fc1cnc(Oc2ccccc2-c2cc(Cl)sn2)nc1 [Compound 193] |  |  |  |  |  |  |  |  |  |  |  |  |  |  |  |  | 0 | 65 | 0 | 0 | Plant response rating, Ryegrass, Italian [1, 17]: 30; Plant response rating, Ryegrass, Italian [1, 18]: 0; Plant response rating, Barnyardgrass [2, 17]: 90; Plant response rating, Barnyardgrass [2, 18]: 100; Plant response rating, Corn (corn (Zea mays); [17]): 10; Plant response rating, Foxtail, Giant [3, 17]: 90; Plant response rating, Foxtail, Giant [3, 18]: 100; Plant response rating, Kochia (kochia (Kochia scoparia); [17]): 100; Plant response rating, Kochia (kochia (Kochia scoparia); [18]): 100; Plant response rating, Pigweed [4, 17]: 100; Plant response rating, Pigweed [4, 18]: 100; Plant response rating, Ragweed [5, 17]: 90; Plant response rating, Ragweed [5, 18]: 80; Plant response rating, Wheat [6, 17]: 20; Plant response rating, Blackgrass [7, 17]: 90; Plant response rating, Galium [8, 17]: 100 |
